From patent US20240239782A1, “SULFATE CRYSTALS OF MELANOCORTIN RECEPTOR AGONIST COMPOUND AND METHOD OF PRODUCING SAME” (LG CHEM, LTD., priority 2021, published 2024)

Description: Solubility indicates the result of measurement based on the final volume of water added to a sample when it is visually confirmed that the sample is completely dissolved by adding water to the sample. The solubility of the actual sample may be higher than the measured solubility. Solubility was measured based on the final volume of water added to a sample when it was visually confirmed that the sample was completely dissolved by adding water to the sample.

solubility: more than 56 mg/mL
SMILES: CC(C)C(=O)N([C@H]1C[C@@H](C(=O)N2CCOCC2)N(C(=O)[C@@H]2CN(C(C)(C)C)C[C@H]2c2ccc(Cl)cc2)C1)[C@H]1CC[C@@H](C)CC1.O=S(=O)(O)O [Example 2, N-((3S,5S)-1-((3S,4R)-1-(tert-butyl)-4-(4-chlorophenyl)pyrrolidine-3-carbonyl)-5-(morpholine-4-carbonyl)pyrrolidin-3-yl)-N-((1 s,4R)-4-methylcyclohexyl)isobutyramide sulfate]
